This note sets out measurements from US20150141381A1, “TETRACYCLINE COMPOUNDS HAVING TARGET THERAPEUTIC ACTIVITIES” (Paratek Pharmaceuticals, Inc., priority 2001, published 2015).

One test concerns S. aureus RN450. Kind of test: In Vitro Anti-Bacterial Activity Assay (MIC), gram positive. Type of test: cell-based. The following applies: Staphylococcus aureus, RN450, 18 h.
Another test concerns E. coli mL308 225. In words: In Vitro Anti-Bacterial Activity Assay (MIC), gram negative. The class given is cell-based. The following applies: Escherichia coli, ML308225, 18 h.
The mark [1] stands for this setting: gram positive bacteria, read-out: Antibiotic Activity Gram + (MIC).
Setting [2] is: gram negative bacteria, read-out: Antibiotic Activity Gram − (MIC).
[3] abbreviates: MIC class, Table 3, read-out: Antibiotic Activity Gram +.
The mark [4] stands for this setting: MIC class, Table 3, read-out: Antibiotic Activity Gram −.
Where [5] appears, read: MIC class, Table 3 (Continued), read-out: Gram+ activity.
Setting [6] is: MIC class, Table 3 (Continued), read-out: Gram− activity.

Read-outs that look alike come from different tables or passages of the source.

For the compound `CN(C)[C@@H]1C(O)=C(C(N)=O)C(=O)[C@@]2(O)C(O)=C3C(=O)c4c(O)ccc(CCC(=O)N5CCOCC5)c4C[C@H]3C[C@@H]12`, the values for the MIC with S. aureus RN450 (setting [1]) and in the test on E. coli mL308 225 (setting [2]) were less than 4 µg/mL and greater than 4 µg/mL, respectively.

Take `CN(C)[C@@H]1C(O)=C(C(N)=O)C(=O)[C@@]2(O)C(O)=C3C(=O)c4c(O)cccc4C[C@H]3C[C@@H]12` [E]: the MIC with S. aureus RN450 (setting [3]) and with E. coli mL308 225 (setting [4]) was less than 4 µg/mL each time.

For the compound `CN(C)c1cc(-c2cccs2)c(O)c2c1C[C@H]1C[C@H]3[C@H](N(C)C)C(O)=C(C(N)=O)C(=O)[C@@]3(O)C(O)=C1C2=O` [W], the MIC in the test with S. aureus RN450 (setting [3]) is less than 4 µg/mL; in the test with E. coli mL308 225 (setting [4]), greater than 4 µg/mL.

Turning to `CN(C)[C@@H]1C(O)=C(C(N)=O)C(=O)[C@@]2(O)C(O)=C3C(=O)c4c(O)ccc(Cl)c4C[C@H]3C[C@@H]12`, the MIC with S. aureus RN450 (setting [1]) and with E. coli mL308 225 (setting [2]) was less than 4 µg/mL throughout.

In the case of `CO/N=C/c1ccc(OC)c(-c2ccc(O)c3c2C[C@H]2C[C@H]4[C@H](N(C)C)C(O)=C(C(N)=O)C(=O)[C@@]4(O)C(O)=C2C3=O)c1`, the MIC in the test on S. aureus RN450 (setting [1]) and in the test with E. coli mL308 225 (setting [2]) was less than 4 µg/mL in each case.

Regarding `COCCOC(=O)Nc1ccc(-c2ccc(O)c3c2C[C@H]2C[C@H]4[C@H](N(C)C)C(O)=C(C(N)=O)C(=O)[C@@]4(O)C(O)=C2C3=O)cc1` [HH], the figures for the MIC in the test on S. aureus RN450 (setting [3]) and in the test on E. coli mL308 225 (setting [4]) were less than 4 µg/mL and greater than 4 µg/mL, respectively.

In the case of `CCc1cc(-c2ccc(N(C)C)cc2)c2c(c1O)C(=O)C1=C(O)[C@]3(O)C(=O)C(C(N)=O)=C(O)[C@@H](N(C)C)[C@@H]3C[C@@H]1C2`, the MIC in the test with S. aureus RN450 (setting [1]) and in the test with E. coli mL308 225 (setting [2]) was less than 4 µg/mL throughout.

`CCCN1CCC(Nc2ccc3c(c2O)C(=O)C2=C(O)[C@]4(O)C(=O)C(C(N)=O)=C(O)[C@@H](N(C)C)[C@@H]4[C@@H](O)[C@@H]2[C@H]3C)CC1` [KX]: the MIC with S. aureus RN450 (setting [3]) and with E. coli mL308 225 (setting [4]) was less than 4 µg/mL throughout.

Consider `CN(C)[C@@H]1C(O)=C(C(N)=O)C(=O)[C@@]2(O)C(O)=C3C(=O)c4c(O)ccc(CN(CC5CC5)CC5CC5)c4C[C@H]3C[C@@H]12` [KC], for which the MIC in the test on S. aureus RN450 (setting [3]) and in the test on E. coli mL308 225 (setting [4]) was less than 4 µg/mL throughout.

Regarding `CN(C)c1ccc(NC(=O)NCc2cc(N(C)C)c3c(c2O)C(=O)C2=C(O)[C@]4(O)C(=O)C(C(N)=O)=C(O)[C@@H](N(C)C)[C@@H]4C[C@@H]2C3)cc1` [FN], the MIC was less than 4 µg/mL in the test on S. aureus RN450 (setting [3]) and greater than 4 µg/mL with E. coli mL308 225 (setting [4]).

Take `CC(=O)Cc1cc(N(C)C)c2c(c1O)C(=O)C1=C(O)[C@]3(O)C(=O)C(C(N)=O)=C(O)[C@@H](N(C)C)[C@@H]3C[C@@H]1C2`: the MIC is less than 4 µg/mL in the test with S. aureus RN450 (setting [1]) and greater than 4 µg/mL in the test on E. coli mL308 225 (setting [2]).

As to `CC1c2cccc(O)c2C(=O)C2=C(O)[C@]3(O)C(=O)C(C(N)=O)=C(O)[C@@H](N(C)C)[C@@H]3[C@@H](OC(=O)CCC(=O)O)[C@@H]21` (some centres unmarked), the MIC with S. aureus RN450 (setting [5]) is less than 4 µg/mL; in the test with E. coli mL308 225 (setting [6]) it was greater than 4 µg/mL.

Take `CC(=O)c1ccc(O)c2c1C[C@H]1C[C@H]3[C@H](N(C)C)C(O)=C(C(N)=O)C(=O)[C@@]3(O)C(O)=C1C2=O` [BJ]: the MIC in the test on S. aureus RN450 (setting [3]) and with E. coli mL308 225 (setting [4]) was less than 4 µg/mL each time.

Turning to `CN(C)CCNC(=O)c1ccc(-c2ccc(O)c3c2C[C@H]2C[C@H]4[C@H](N(C)C)C(O)=C(C(N)=O)C(=O)[C@@]4(O)C(O)=C2C3=O)cc1`, the MIC is less than 4 µg/mL in the test on S. aureus RN450 (setting [1]) and greater than 4 µg/mL with E. coli mL308 225 (setting [2]).

As to `CN(C)[C@@H]1C(O)=C(C(N)=O)C(=O)[C@@]2(O)C(O)=C3C(=O)c4c(O)ccc(CN5CCCCC5)c4C[C@H]3C[C@@H]12` [KJ], the MIC with S. aureus RN450 (setting [3]) and with E. coli mL308 225 (setting [4]) was less than 4 µg/mL each time.

On to `CN(C)[C@@H]1C(O)=C(C(N)=O)C(=O)[C@@]2(O)C(O)=C3C(=O)c4c(O)ccc(-c5cnc(N)nc5)c4C[C@H]3C[C@@H]12` [PF], for which the MIC in the test on S. aureus RN450 (setting [3]) and with E. coli mL308 225 (setting [4]) was less than 4 µg/mL throughout.

On to `CN(C)[C@@H]1C(O)=C(C(N)=O)C(=O)[C@@]2(O)C(O)=C3C(=O)c4c(O)ccc(C#CCCC#Cc5ccc(O)c6c5C[C@H]5C[C@H]7[C@H](N(C)C)C(O)=C(C(N)=O)C(=O)[C@@]7(O)C(O)=C5C6=O)c4C[C@H]3C[C@@H]12` [FM], for which the MIC in the test with S. aureus RN450 (setting [3]) and in the test on E. coli mL308 225 (setting [4]) was greater than 4 µg/mL each time.

In the case of `CC(C)NCc1ccc(-c2ccc(O)c3c2C[C@H]2C[C@H]4C(N(C)C)C(O)=C(C(N)=O)C(=O)[C@@]4(O)C(O)=C2C3=O)cc1` (some centres unmarked) [GL], the MIC in the test with S. aureus RN450 (setting [3]) and with E. coli mL308 225 (setting [4]) was less than 4 µg/mL throughout.

For the compound `CC(=O)c1cc(C(C)=O)c2c(c1O)C(=O)C1=C(O)[C@]3(O)C(=O)C(C(N)=O)=C(O)[C@@H](N(C)C)[C@@H]3C[C@@H]1C2` [EB], the MIC in the test with S. aureus RN450 (setting [3]) is less than 4 µg/mL; in the test with E. coli mL308 225 (setting [4]), greater than 4 µg/mL.

Turning to `COc1ccc(OC)c(-c2ccc(O)c3c2C[C@H]2C[C@H]4[C@H](N(C)C)C(O)=C(C(N)=O)C(=O)[C@@]4(O)C(O)=C2C3=O)c1`, the MIC in the test on S. aureus RN450 (setting [5]) and with E. coli mL308 225 (setting [6]) was less than 4 µg/mL each time.

Take `CN(C)[C@H]1C(O)=C(C(N)=O)C(=O)[C@@]2(O)C(O)=C3C(=O)c4c(O)ccc(-c5ncccn5)c4C[C@H]3C[C@@H]12` [PX]: the MIC in the test on S. aureus RN450 (setting [3]) was less than 4 µg/mL; with E. coli mL308 225 (setting [4]), greater than 4 µg/mL.

For `CN(C)c1cc(NCc2ccccc2OC(C)(C)C)c(O)c2c1C[C@H]1C[C@H]3[C@H](N(C)C)C(O)=C(C(N)=O)C(=O)[C@@]3(O)C(O)=C1C2=O`, the MIC with S. aureus RN450 (setting [1]) is less than 4 µg/mL; in the test with E. coli mL308 225 (setting [2]), greater than 4 µg/mL.

As to `CN1C=CC(Nc2cc(C3=COCC3)c3c(c2O)C(=O)C2=C(O)[C@]4(O)C(=O)C(C(N)=O)=C(O)[C@@H](N(C)C)[C@@H]4C[C@@H]2C3)CC1` (some centres unmarked), the MIC in the test on S. aureus RN450 (setting [1]) was less than 4 µg/mL; in the test with E. coli mL308 225 (setting [2]) it was greater than 4 µg/mL.

As to `CN(C)[C@@H]1C(O)=C(C(N)=O)C(=O)[C@@]2(O)C(O)=C3C(=O)c4c(ccc(N5CCCCC5)c4O)C[C@H]3C[C@@H]12`, the MIC with S. aureus RN450 (setting [1]) and in the test with E. coli mL308 225 (setting [2]) was greater than 4 µg/mL throughout.

As for `CCC1(C)CCN(Cc2cc(N(C)C)c3c(c2O)C(=O)C2=C(O)[C@]4(O)C(=O)C(C(N)=O)=C(O)[C@@H](N(C)C)[C@@H]4C[C@@H]2C3)CC1`, the MIC in the test on S. aureus RN450 (setting [1]) and with E. coli mL308 225 (setting [2]) was less than 4 µg/mL each time.

As to `COc1ccc(C=O)cc1-c1ccc(O)c2c1C[C@H]1C[C@H]3[C@H](N(C)C)C(O)=C(C(N)=O)C(=O)[C@@]3(O)C(O)=C1C2=O` [BC], the MIC with S. aureus RN450 (setting [3]) and in the test on E. coli mL308 225 (setting [4]) was less than 4 µg/mL in each case.

Consider `CN(C)Cc1cc(N(C)C)c2c(c1O)C(=O)C1=C(O)[C@]3(O)C(=O)C(C(N)=O)=C(O)[C@@H](N(C)C)[C@@H]3C[C@@H]1C2`, for which the results for the MIC with S. aureus RN450 (setting [1]) and in the test with E. coli mL308 225 (setting [2]) were less than 4 µg/mL and greater than 4 µg/mL, respectively.

With `CN(C)[C@@H]1C(O)=C(C(N)=O)C(=O)[C@@]2(O)C(O)=C3C(=O)c4c(O)c(I)cc(CN)c4C[C@H]3C[C@@H]12` [FV], the MIC in the test on S. aureus RN450 (setting [3]) and in the test with E. coli mL308 225 (setting [4]) was greater than 4 µg/mL in each case.

For `COc1ccc(-c2ccc(O)c3c2C[C@H]2C[C@H]4[C@H](N(C)C)C(O)=C(C(N)=O)C(=O)[C@@]4(O)C(O)=C2C3=O)cc1` [drawing 3310], the MIC in the test on S. aureus RN450 (setting [5]) and with E. coli mL308 225 (setting [6]) was less than 4 µg/mL throughout.

`CN(C)c1cc(C(=O)N2CCOCC2)c(O)c2c1C[C@H]1C[C@H]3[C@H](N(C)C)C(O)=C(C(N)=O)C(=O)[C@@]3(O)C(O)=C1C2=O`: the MIC with S. aureus RN450 (setting [1]) and with E. coli mL308 225 (setting [2]) was greater than 4 µg/mL throughout.

Take `CCNCC(=O)NCc1cc(N(C)C)c2c(c1O)C(=O)C1=C(O)[C@]3(O)C(=O)C(C(N)=O)=C(O)[C@@H](N(C)C)[C@@H]3C[C@@H]1C2`: the MIC with S. aureus RN450 (setting [1]) and with E. coli mL308 225 (setting [2]) was greater than 4 µg/mL in each case.
